The source of these data is US20240279240A1, “HETEROCYCLIC DERIVATIVES AS JANUS KINASE INHIBITORS” (CHIESI FARMACEUTICI S.P.A., priority 2021, published 2024).

One experiment concerns the target JAK 1 (Homo sapiens, UniProt P23458). Kind of experiment: Biochemical potency on JAK1, TR-FRET LANCE Ultra kinase assay (examples 1-99). The conditions noted are these: ATP at Km (20 μM), read-out: JAK1 inhibitory activity (pIC50 class) (converted). Put shortly:
(§1)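 Inhibition of each JAK family kinase is measured as loss of phosphotyrosine signal on a ULight peptide, detected by Eu-PT66 antibody (final 0.5 nM) via time-resolved FRET. ATP sits near Km for each isoform. Dose–response spans 20 μM downward in 5-fold steps, 11 points.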

Another experiment has as its target JAK 2 (Homo sapiens, UniProt O60674). Kind of experiment: Biochemical potency on JAK2, TR-FRET LANCE Ultra kinase assay (examples 1-99). The conditions noted are these: ATP at Km (0.7 μM), read-out: JAK2 inhibitory activity (pIC50 class) (converted). Put shortly: as §1
Another experiment addresses T1, JAK 3 (Homo sapiens, UniProt P52333).
T1 sequence (P52333 1-1124): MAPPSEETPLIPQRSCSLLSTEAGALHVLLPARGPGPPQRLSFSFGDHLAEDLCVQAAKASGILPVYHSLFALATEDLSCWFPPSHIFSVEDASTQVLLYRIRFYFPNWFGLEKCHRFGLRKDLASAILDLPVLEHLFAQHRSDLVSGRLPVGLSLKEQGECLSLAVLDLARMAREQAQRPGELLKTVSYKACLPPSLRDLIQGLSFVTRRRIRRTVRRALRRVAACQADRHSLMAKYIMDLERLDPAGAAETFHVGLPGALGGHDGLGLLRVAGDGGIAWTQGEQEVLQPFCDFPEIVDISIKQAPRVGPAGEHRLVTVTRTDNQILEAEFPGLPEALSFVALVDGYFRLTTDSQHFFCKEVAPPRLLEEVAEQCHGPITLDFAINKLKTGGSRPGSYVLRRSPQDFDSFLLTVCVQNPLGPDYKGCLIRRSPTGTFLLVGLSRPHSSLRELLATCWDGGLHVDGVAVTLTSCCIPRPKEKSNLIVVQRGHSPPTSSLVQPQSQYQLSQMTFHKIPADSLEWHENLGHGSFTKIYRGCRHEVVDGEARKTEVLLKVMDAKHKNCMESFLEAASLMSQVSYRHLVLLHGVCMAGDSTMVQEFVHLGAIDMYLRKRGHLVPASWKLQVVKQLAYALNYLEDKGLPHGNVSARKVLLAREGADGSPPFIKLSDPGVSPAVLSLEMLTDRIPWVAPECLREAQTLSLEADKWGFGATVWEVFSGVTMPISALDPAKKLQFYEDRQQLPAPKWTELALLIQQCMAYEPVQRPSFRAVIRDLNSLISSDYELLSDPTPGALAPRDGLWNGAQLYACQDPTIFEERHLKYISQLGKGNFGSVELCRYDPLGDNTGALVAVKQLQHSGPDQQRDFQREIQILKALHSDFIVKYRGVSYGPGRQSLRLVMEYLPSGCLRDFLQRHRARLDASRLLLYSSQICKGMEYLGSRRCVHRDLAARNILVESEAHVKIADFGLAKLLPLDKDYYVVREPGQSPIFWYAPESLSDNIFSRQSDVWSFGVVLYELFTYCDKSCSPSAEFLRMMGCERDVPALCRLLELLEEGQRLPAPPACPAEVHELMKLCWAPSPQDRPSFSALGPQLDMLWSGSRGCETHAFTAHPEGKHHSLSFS
Nature of the experiment: Biochemical potency on JAK3, TR-FRET LANCE Ultra kinase assay (examples 1-99). As to conditions: ATP at Km (0.2 μM), read-out: JAK3 inhibitory activity (pIC50 class) (converted). Put shortly: as §1

The target in the next experiment is TYK2 (Homo sapiens, UniProt P29597). Kind of experiment: Biochemical potency on Tyk2, TR-FRET LANCE Ultra kinase assay (examples 1-99). As to conditions: ATP at Km (12 μM), read-out: Tyk2 inhibitory activity (pIC50 class) (converted). In a few lines: as §1

Each structure is given as a SMILES string.

Chain of TYK2 (P29597 whole entry): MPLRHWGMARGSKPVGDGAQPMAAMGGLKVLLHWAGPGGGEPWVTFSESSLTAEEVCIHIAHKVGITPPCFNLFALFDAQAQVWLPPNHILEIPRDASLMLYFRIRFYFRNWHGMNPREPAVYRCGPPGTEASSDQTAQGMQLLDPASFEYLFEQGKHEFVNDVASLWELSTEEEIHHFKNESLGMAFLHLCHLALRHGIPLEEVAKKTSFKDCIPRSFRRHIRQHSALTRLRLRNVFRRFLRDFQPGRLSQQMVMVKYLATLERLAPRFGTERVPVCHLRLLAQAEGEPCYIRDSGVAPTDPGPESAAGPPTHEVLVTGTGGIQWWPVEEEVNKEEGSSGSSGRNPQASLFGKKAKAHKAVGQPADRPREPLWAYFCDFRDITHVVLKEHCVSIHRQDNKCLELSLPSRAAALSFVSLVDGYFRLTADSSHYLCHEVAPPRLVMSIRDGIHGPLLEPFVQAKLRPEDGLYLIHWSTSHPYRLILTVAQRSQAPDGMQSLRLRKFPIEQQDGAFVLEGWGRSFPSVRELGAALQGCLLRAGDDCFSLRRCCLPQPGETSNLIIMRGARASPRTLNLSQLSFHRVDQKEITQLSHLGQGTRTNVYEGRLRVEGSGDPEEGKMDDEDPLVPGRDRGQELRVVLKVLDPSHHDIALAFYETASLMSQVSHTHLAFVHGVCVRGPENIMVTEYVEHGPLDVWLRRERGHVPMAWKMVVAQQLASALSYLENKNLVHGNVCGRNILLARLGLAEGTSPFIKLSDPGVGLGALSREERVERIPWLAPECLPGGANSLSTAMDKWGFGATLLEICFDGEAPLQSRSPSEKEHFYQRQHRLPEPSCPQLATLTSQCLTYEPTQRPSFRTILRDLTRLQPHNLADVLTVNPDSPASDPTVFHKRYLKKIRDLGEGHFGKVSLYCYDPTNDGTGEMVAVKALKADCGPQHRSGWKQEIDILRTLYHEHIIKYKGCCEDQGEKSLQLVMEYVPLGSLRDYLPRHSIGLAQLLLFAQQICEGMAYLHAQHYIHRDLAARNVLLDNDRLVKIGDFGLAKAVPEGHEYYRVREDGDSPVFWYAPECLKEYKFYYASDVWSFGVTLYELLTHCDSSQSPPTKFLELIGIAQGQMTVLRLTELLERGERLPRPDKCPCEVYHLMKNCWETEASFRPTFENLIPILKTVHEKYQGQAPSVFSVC
Chain of JAK 1 (P23458 whole entry, canonical isoform): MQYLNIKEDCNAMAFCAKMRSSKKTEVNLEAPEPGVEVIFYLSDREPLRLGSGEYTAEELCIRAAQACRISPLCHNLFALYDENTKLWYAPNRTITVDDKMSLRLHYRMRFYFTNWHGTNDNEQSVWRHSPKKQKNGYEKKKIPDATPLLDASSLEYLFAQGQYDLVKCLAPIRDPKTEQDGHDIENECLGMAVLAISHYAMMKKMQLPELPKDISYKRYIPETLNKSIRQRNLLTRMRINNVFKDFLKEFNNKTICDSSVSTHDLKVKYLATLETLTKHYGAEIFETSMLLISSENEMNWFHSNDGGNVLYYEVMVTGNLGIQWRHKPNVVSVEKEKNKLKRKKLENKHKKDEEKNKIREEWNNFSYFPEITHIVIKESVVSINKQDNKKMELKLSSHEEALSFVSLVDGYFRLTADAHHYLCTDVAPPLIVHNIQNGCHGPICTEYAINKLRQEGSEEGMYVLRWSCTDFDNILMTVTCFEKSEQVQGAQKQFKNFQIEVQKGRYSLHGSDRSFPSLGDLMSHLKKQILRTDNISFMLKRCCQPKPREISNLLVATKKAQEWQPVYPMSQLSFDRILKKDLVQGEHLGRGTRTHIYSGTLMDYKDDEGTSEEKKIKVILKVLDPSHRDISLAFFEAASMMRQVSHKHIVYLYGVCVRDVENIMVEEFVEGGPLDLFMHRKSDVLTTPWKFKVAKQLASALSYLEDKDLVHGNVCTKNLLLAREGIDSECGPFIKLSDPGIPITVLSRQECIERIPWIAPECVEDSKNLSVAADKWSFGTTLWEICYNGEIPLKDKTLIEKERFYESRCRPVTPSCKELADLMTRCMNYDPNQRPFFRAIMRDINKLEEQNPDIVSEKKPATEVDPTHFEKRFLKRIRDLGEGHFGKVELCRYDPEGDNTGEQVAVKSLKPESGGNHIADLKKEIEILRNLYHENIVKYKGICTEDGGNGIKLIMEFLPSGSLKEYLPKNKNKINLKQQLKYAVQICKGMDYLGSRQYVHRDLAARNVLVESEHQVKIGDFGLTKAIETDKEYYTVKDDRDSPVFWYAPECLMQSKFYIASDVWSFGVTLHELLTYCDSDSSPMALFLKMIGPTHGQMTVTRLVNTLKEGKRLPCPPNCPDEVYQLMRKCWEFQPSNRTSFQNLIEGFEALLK
Chain of JAK 2 (O60674 whole entry): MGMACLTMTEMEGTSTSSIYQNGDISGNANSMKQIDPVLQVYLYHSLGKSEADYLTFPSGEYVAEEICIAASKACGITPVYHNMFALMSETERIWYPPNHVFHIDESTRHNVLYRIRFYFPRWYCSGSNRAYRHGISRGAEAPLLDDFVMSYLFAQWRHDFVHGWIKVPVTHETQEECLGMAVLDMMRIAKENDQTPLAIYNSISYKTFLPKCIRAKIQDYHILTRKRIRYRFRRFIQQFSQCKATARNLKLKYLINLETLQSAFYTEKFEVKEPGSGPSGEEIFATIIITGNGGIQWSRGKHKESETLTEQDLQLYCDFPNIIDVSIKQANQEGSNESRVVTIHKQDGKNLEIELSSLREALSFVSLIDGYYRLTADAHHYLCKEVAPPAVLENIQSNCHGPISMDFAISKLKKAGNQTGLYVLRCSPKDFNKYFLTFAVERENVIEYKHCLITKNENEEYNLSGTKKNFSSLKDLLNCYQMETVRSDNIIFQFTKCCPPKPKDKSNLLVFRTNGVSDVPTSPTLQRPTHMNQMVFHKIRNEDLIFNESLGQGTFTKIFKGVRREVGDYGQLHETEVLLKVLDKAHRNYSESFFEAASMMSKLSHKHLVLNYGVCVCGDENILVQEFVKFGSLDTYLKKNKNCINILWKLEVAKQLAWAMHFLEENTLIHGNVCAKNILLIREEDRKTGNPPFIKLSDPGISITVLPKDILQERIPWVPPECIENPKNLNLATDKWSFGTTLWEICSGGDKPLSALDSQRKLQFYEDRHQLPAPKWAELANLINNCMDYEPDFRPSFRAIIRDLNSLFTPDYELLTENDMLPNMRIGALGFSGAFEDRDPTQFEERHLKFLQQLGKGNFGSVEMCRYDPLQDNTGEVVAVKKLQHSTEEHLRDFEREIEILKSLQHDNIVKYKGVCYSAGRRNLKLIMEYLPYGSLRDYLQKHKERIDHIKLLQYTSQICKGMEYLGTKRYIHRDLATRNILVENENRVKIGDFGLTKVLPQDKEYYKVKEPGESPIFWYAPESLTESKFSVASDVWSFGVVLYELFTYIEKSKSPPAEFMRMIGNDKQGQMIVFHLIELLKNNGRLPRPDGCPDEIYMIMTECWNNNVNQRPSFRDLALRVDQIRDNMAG

In the case of `CNc1nn(-c2cc(S(C)(=O)=O)ccc2OC)c2cc(-c3cnn4cccnc34)ncc12` [Example 85, 1-(2-methoxy-5-(methylsulfonyl)phenyl)-N-methyl-6-(pyrazolo[1,5-a]pyrimidin-3-yl)-1H-pyrazolo[4,3-c]pyridin-3-amine], the IC50 on JAK 1 was greater than 50.1 nM; at JAK 2, no more than 5.01 nM; on JAK 3, 5.01 to 50.1 nM; at TYK2, greater than 50.1 nM.

`COc1ccc(NS(C)(=O)=O)cc1-n1nc(NCCN(C)C)c2cnc(-c3cnn4cccnc34)cc21` [Example 86, N-(3-(3-((2-(dimethylamino)ethyl)amino)-6-(pyrazolo[1,5-a]pyrimidin-3-yl)-1H-pyrazolo[4,3-c]pyridin-1-yl)-4-methoxyphenyl)methanesulfonamide]: the IC50 at JAK 1 is greater than 50.1 nM; on JAK 2, 5.01 to 50.1 nM; at JAK 3 it was 5.01 to 50.1 nM; on TYK2 it was greater than 50.1 nM.

Turning to `CNCC(=O)Nc1nn(-c2cc(Cl)ccc2OC)c2cc(-c3cnn4cccnc34)ncc12` [Example 87, N-(1-(5-chloro-2-methoxyphenyl)-6-(pyrazolo[1,5-a]pyrimidin-3-yl)-1H-pyrazolo[4,3-c]pyridin-3-yl)-2-(methylamino)acetamide], the IC50 is 5.01 to 50.1 nM at JAK 1, no more than 5.01 nM at JAK 2, 5.01 to 50.1 nM on JAK 3 and 5.01 to 50.1 nM at TYK2.

On to `COc1cc(O)c(F)cc1-n1nc(C(=O)NCCCN(C)C)c2cnc(-c3cnn4cccnc34)cc21` [Example 88, N-(3-(dimethylamino)propyl)-1-(5-fluoro-4-hydroxy-2-methoxyphenyl)-6-(pyrazolo[1,5-a]pyrimidin-3-yl)-1H-pyrazolo[4,3-c]pyridine-3-carboxamide], for which the IC50 on JAK 1 is no more than 5.01 nM; at JAK 2, 5.01 to 50.1 nM; on JAK 3, 5.01 to 50.1 nM; at TYK2, 5.01 to 50.1 nM.

As for `CNCc1nn(-c2cc(S(C)(=O)=O)ccc2OC)c2cc(-c3cnn4cccnc34)ncc12` [Example 89, 1-(1-(2-Methoxy-5-(methylsulfonyl)phenyl)-6-(pyrazolo[1,5-a]pyrimidin-3-yl)-1H-pyrazolo[4,3-c]pyridin-3-yl)-N-methylmethanamine], the IC50 is 5.01 to 50.1 nM at JAK 1, 5.01 to 50.1 nM at JAK 2, greater than 50.1 nM on JAK 3 and greater than 50.1 nM on TYK2.

Consider `COc1ccc(F)cc1-n1nc(C)c2cnc(Nc3ncc[nH]c3=O)cc21` [Example 90, 3-((1-(5-Fluoro-2-methoxyphenyl)-3-methyl-1H-pyrazolo[4,3-c]pyridin-6-yl)amino)pyrazin-2(1H)-one], for which the IC50 on JAK 1 is 5.01 to 50.1 nM; at JAK 2 it was no more than 5.01 nM; on JAK 3 it was no more than 5.01 nM; at TYK2, 5.01 to 50.1 nM.

As to `COc1ccc(C(F)F)cc1-n1nc(C)c2cnc(Nc3ncc[nH]c3=O)cc21` [Example 91, 3-((1-(5-(difluoromethyl)-2-methoxyphenyl)-3-methyl-1H-pyrazolo[4,3-c]pyridin-6-yl)amino)pyrazin-2(1H)-one], the IC50 is 5.01 to 50.1 nM on JAK 1, no more than 5.01 nM at JAK 2, no more than 5.01 nM on JAK 3 and 5.01 to 50.1 nM at TYK2.

As to `COc1ccc(S(=O)(=O)NCCO)cc1-n1nc(C)c2cnc(Nc3ncc[nH]c3=O)cc21` [Example 92, N-(2-hydroxyethyl)-4-methoxy-3-(3-methyl-6-((3-oxo-3,4-dihydropyrazin-2-yl)amino)-1H-pyrazolo[4,3-c]pyridin-1-yl)benzenesulfonamide], the IC50 at JAK 1 is 5.01 to 50.1 nM; on JAK 2 it was no more than 5.01 nM; on JAK 3, no more than 5.01 nM; at TYK2, greater than 50.1 nM.

With `COCCSc1ccc(OC(F)F)c(-n2nc(C)c3cnc(Nc4ncc[nH]c4=O)cc32)c1` [Example 93, 3-((1-(2-(difluoromethoxy)-5-((2-methoxyethyl)thio)phenyl)-3-methyl-1H-pyrazolo[4,3-c]pyridin-6-yl)amino)pyrazin-2(1H)-one], the IC50 was 5.01 to 50.1 nM on JAK 1, no more than 5.01 nM at JAK 2, no more than 5.01 nM on JAK 3 and 5.01 to 50.1 nM on TYK2.

In the case of `Cc1nn(-c2cc(S(C)(=O)=O)ccc2OC(F)F)c2cc(Nc3ncc[nH]c3=O)ncc12` [Example 94, 3-((1-(2-(difluoromethoxy)-5-(methylsulfonyl)phenyl)-3-methyl-1H-pyrazolo[4,3-c]pyridin-6-yl)amino)pyrazin-2(1H)-one], the IC50 on JAK 1 is no more than 5.01 nM; at JAK 2 it was no more than 5.01 nM; at JAK 3 it was no more than 5.01 nM; on TYK2, 5.01 to 50.1 nM.

Consider `COCCS(=O)(=O)c1ccc(OC(F)F)c(-n2nc(C)c3cnc(Nc4ncc[nH]c4=O)cc32)c1` [Example 95, 3-((1-(2-(difluoromethoxy)-5-((2-methoxyethyl)sulfonyl)phenyl)-3-methyl-1H-pyrazolo[4,3-c]pyridin-6-yl)amino)pyrazin-2(1H)-one], for which the IC50 at JAK 1 is 5.01 to 50.1 nM; at JAK 2 it was no more than 5.01 nM; on JAK 3, no more than 5.01 nM; on TYK2, 5.01 to 50.1 nM.

On to `COc1ccc(F)cc1-n1nc(C(=O)NCCCN(C)C)c2cnc(Nc3ncc[nH]c3=O)cc21` [Example 96, N-(3-(dimethylamino)propyl)-1-(5-fluoro-2-methoxyphenyl)-6-((3-oxo-3,4-dihydropyrazin-2-yl)amino)-1H-pyrazolo[4,3-c]pyridine-3-carboxamide], for which the IC50 at JAK 1, at JAK 2, on JAK 3 and on TYK2 was 5.01 to 50.1 nM each time.

Regarding `COc1ccc(F)cc1-n1nc(NCCCN(C)C)c2cnc(Nc3ncc[nH]c3=O)cc21` [Example 97, 3-((3-((3-(dimethylamino)propyl)amino)-1-(5-fluoro-2-methoxyphenyl)-1H-pyrazolo[4,3-c]pyridin-6-yl)amino)pyrazin-2(1H)-one], the IC50 on JAK 1 is 5.01 to 50.1 nM; at JAK 2, no more than 5.01 nM; on JAK 3, no more than 5.01 nM; at TYK2 it was 5.01 to 50.1 nM.

Regarding `COc1ccc(C(F)F)cc1-n1nc(NCCN(C)C)c2cnc(Nc3ncc[nH]c3=O)cc21` [Example 98, 3-((1-(5-(difluoromethyl)-2-methoxyphenyl)-3-((2-(dimethylamino)ethyl)amino)-1H-pyrazolo[4,3-c]pyridin-6-yl)amino)pyrazin-2(1H)-one], the IC50 at JAK 1, at JAK 2, at JAK 3 and on TYK2 was 5.01 to 50.1 nM in each case.

On to `Cc1nn(-c2cc(Cl)ccc2OC(F)F)c2cc(Nc3ncc[nH]c3=O)ncc12` [Example 99, 3-((1-(5-chloro-2-(difluoromethoxy)phenyl)-3-methyl-1H-pyrazolo[4,3-c]pyridin-6-yl)amino)pyrazin-2(1H)-one], for which the IC50 was no more than 5.01 nM on JAK 1, no more than 5.01 nM on JAK 2, no more than 5.01 nM at JAK 3 and 5.01 to 50.1 nM at TYK2.
